Values after ≈ are worked out from the molar mass of the structure shown. Read-outs that look alike come from different tables or passages of the source.
Columns and labels:
E. coli N [1] = experiment: Inhibition of bacterial growth (IC50, OD600); assay type: cell-based; conditions: Escherichia coli
Experimental: (§1) Compounds of the invention were tested for their ability to inhibit the growth of β-lactam sensitive and resistant bacteria by contacting samples of such cells with various dilutions of the compositions, incubating the cells at 37° C. in the presence of these compositions and then measuring the number of viable cells present in each sample.
(§2) Two compounds of the invention were tested, Compound (9) and Compound (1l). Incubation of bacterial cells was performed for two time periods, 10 hours and 20 hours. Four E. coli strains were used for the test. These strains were all derived from the strain NovaBlue (NovaGen Inc., Madison, Wis.). E. coli N is a normal, β-lactam sensitive strain. E coli R(Tem1) is a β-lactam resistant strain with a β-lactamase gene on a plasmid. E. coli C(Tem4O-15) is a β-lactam resistant strain with a β-lactam inhibitor resistant β-lactamase gene, and E. coli C(Tem3 1-27) is β-lactam resistant strain with an alternative β-lactam inhibitor resistant β-lactamase gene.
(§3) The various E. coli strains were each treated with dilutions of the compounds of the invention. […] The number of viable cells at each time point was determined by measuring the OD600 of each cell sample.
(§4) After measuring the number of viable cells present, the IC50 for each sample was determined. […] In addition, both compounds were effective at inhibiting the growth of both antibiotic sensitive and resistant bacterial cells.

E. coli C(Tem3 1-27) = experiment: Inhibition of bacterial growth (IC50, OD600); assay type: cell-based; conditions: for IC50: Escherichia coli
Experimental: as §1, §2, §3, §4

E coli R(Tem1) = experiment: Inhibition of bacterial growth (IC50, OD600); assay type: cell-based; conditions: for IC50 ratio N/R: N versus R (Tem1); for IC50: Escherichia coli
Experimental: as §1, §2, §3, §4

E. coli C(Tem4O-15) = experiment: Inhibition of bacterial growth (IC50, OD600); assay type: cell-based; conditions: for IC50: Escherichia coli
Experimental: as §1, §2, §3, §4

E. cloacae = experiment: Susceptibility testing (MIC, modified NCCLS method); assay type: cell-based, Enterobacter cloacae; conditions: E. cloacae (1)
Method in brief: (§5)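 Stocks are made in water or DMSO depending on solubility. Twofold serial dilutions (20 points) from the top concentration are inoculated with bacteria in broth at about 1-1.5×10^6 cells/ml. MIC is taken from OD600-based growth, following an NCCLS method adapted for screening.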

E. faecium = experiment: as above; assay type: cell-based, Enterococcus faecium; conditions: Enterococcus faecium; E. faecium (6); read-out: GM* MIC (geometric mean)
Experimental: (§6) The NCCLS (National Committee for Clinical Laboratory Standards) method to determine MIC's of antimicrobial compounds was modified for high-throughput screening. All stocks of tested compounds were prepared in either water or in dimethylsulfoxide (DMSO), depending on the solubility. […] Briefly 20 2-fold serial dilutions of testing compounds from the highest concentration were made in a 384-well microtiter plate. Each well was inoculated with testing bacteria in broth to a final concentration of approximately 1-1.5×10^6 cells/ml. Bacterial growth was determined by the increase of optical density at 600 nm using a microplate reader (Tecan SpectraFluor Plus).

TEM-1 β-lactamase = target: T1, TEM-1 β-lactamase (Escherichia coli, UniProt P62593); assay type: biochemical; conditions: 20 minutes, […] TEM-1, 4 μM solution of Compound (9)
T1 construct: His tag (N); made in house; host or cells: Escherichia coli BL21(DE3)
Experimental: Assays were conducted at 37° C. in 100 mM potassium phosphate buffer pH 7.2 with 1 mM EDTA and 0.5 μg/ml TEM-1 β-lactamase. […] Hydrolysis product (triclosan) was separated from Compound (9) by use of an HP1100 series HPLC equipped with an Alltech Adsorbosphere HS(C18)5u 150 mm×4.6 mm column. The mobile phase was isocratic containing 55% acetonitrile and 0.1% TFA producing retention times of 20.4 minutes and 24.1 minutes for triclosan and Compound (9), respectively. Quantitation of triclosan was based on the A260 integrated peak area as compared to triclosan standards.
A typical TEM-1 β-lactamase assay is conducted at 37° C. in 1.4 ml of 100 mM potassium phosphate pH 7.2, 1 mM; ethylenediamine tetraacetic acid (EDTA) and 25 nM TEM-1 β-lactamase. A test compound is assayed at several concentrations, for example at 5 and 20 μM. […] Substrates and products are separated and quantitated via HPLC (described below). […]
Kinetic parameters of test compounds (kcat and Km) are determined from a simultaneous progress curve analysis of substrate consumption and product formation (when both are observable) as fit to the equations: […]
Hydrolysis product (triclosan) was separated from Compound (9) by use of an HP1100 series HPLC equipped with an Alltech Adsorbosphere HS(C18)5μ150 mm×4.6 mm column. […] Quantitation of triclosan was based on the A260 integrated peak area as compared to triclosan standards.

Staphylococcus aureus = experiment: Susceptibility testing (MIC, modified NCCLS method); assay type: cell-based; conditions: for MIC: Staphylococcus aureus
Method in brief: as §5

[2] = assay type: physicochemical; conditions: 5 h, pH 7.2
Experimental: Assays were conducted at 37° C. in 100 mM potassium phosphate buffer pH 7.2 with 1 mM EDTA and 0.5 μg/ml TEM-1 β-lactamase. Compound (9) catalysis was determined via fixed time incubations followed by acid quenching. Product formation (triclosan) was determined by integrated peak area of A260 nm following HPLC separation. Hydrolysis product (triclosan) was separated from Compound (9) by use of an HP1100 series HPLC equipped with an Alltech Adsorbosphere HS(C18)5u 150 mm×4.6 mm column. The mobile phase was isocratic containing 55% acetonitrile and 0.1% TFA producing retention times of 20.4 minutes and 24.1 minutes for triclosan and Compound (9), respectively. Quantitation of triclosan was based on the A260 integrated peak area as compared to triclosan standards.
A typical TEM-1 β-lactamase assay is conducted at 37° C. in 1.4 ml of 100 mM potassium phosphate pH 7.2, 1 mM; ethylenediamine tetraacetic acid (EDTA) and 25 nM TEM-1 β-lactamase. A test compound is assayed at several concentrations, for example at 5 and 20 μM. At timed intervals oft=0, 15, 30, 60 and 120 minutes, 200 μl of the assay mixture is withdrawn and added to 8 μl of 10% trifluoracetic acid (TFA) in an high pressure liquid chromatography.(HPLC) microvial. Substrates and products are separated and quantitated via HPLC (described below). […]

M. catarrhalis = experiment: Susceptibility testing (MIC, modified NCCLS method); assay type: cell-based, Moraxella catarrhalis; conditions: M. catarrhalis (4)
Experimental: as §6

S. pneumoniae = experiment: as above; assay type: cell-based, Streptococcus pneumoniae; conditions: S. pneumoniae (3)
Experimental: as §6

E. coli N [3] = experiment: as above; assay type: cell-based, Escherichia coli; conditions: Escherichia coli, E. coli, BLA neg.
Method in brief: as §5

E. coli/TEM-1 = experiment: as above; assay type: cell-based, Escherichia coli; conditions: for MIC: Escherichia coli
Method in brief: as §5

T1 sequence (P62593 24-286 limits assumed): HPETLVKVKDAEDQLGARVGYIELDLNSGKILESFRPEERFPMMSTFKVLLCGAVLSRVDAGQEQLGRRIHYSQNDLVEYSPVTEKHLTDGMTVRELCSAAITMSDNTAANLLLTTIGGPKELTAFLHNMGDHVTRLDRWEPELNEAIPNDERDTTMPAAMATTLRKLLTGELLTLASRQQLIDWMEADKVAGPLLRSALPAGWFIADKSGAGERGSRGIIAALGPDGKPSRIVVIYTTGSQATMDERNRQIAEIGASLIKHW

Q: Which IC50 (E. coli N [1]; 10 h, read-out: IC50 10 hours, Cell N, 10 hours, 37° C.) does the source give for `O=C(Cc1cccs1)N[C@@H]1C(=O)N2C(C(=O)O)=C(COc3cc(Cl)ccc3Oc3ccc(Cl)cc3Cl)CS[C@H]12` [Compound 9, 3-(2-(2,4-Dichlorophenoxy)-5-chlorophenoxy)methyl-7-(2-thienylacetamido)-3-cephem-4-carboxylic acid] here?
A: 189 nM

Q: And the IC50 (E. coli N [1]; 20 h, read-out: IC50 20 hours, Cell N, 20 hours)?
A: 42.4 nM

Q: And the “IC50 ratio (C/R or N/C)” value (E. coli C(Tem3 1-27); 10 hours, line of C (Tem31-27))?
A: C/R = 90x

Q: And the “IC50 ratio (given C/R or N/R)” value (E. coli C(Tem3 1-27); 20 hours, line of C (Tem31-27))?
A: C/R = 2x

Q: And the IC50 (E. coli C(Tem3 1-27); 10 h, read-out: IC50 10 hours)?
A: 2.09 nM

Q: And the IC50 (E. coli C(Tem3 1-27); 20 h, read-out: IC50 20 hours)?
A: 21 nM

Q: And the “IC50 ratio N/R” value (E coli R(Tem1); 10 hours)?
A: N/R = 1969x

Q: And the “IC50 ratio N/R” value (E coli R(Tem1); 20 hours)?
A: N/R = 10x

Q: And the IC50 (E coli R(Tem1); 10 h, read-out: IC50 10 hours, Cell R (Tem1), 10 hours)?
A: 0.096 nM

Q: What about the IC50 (E coli R(Tem1); 20 h, read-out: IC50 20 hours, Cell R (Tem1), 20 hours) of the same compound?
A: 4.13 nM

Q: And the “IC50 ratio (C/R or N/C)” value (E. coli C(Tem4O-15); 10 hours, line of C (Tem40-15))?
A: C/R = 117x

Q: And the “IC50 ratio (given C/R or N/R)” value (E. coli C(Tem4O-15); 20 hours, line of C (Tem40-15))?
A: C/R = 2.3x

Q: What about the IC50 (E. coli C(Tem4O-15); 10 h, read-out: IC50 10 hours) of the same compound?
A: 1.62 nM

Q: What about the IC50 (E. coli C(Tem4O-15); 20 h, read-out: IC50 20 hours) of the same compound?
A: 18.3 nM

Q: And the MIC range (E. cloacae)?
A: 1000 ng/mL (≈ 1600 nM)

Q: And the MIC (E. cloacae; Enterobacter cloacae, read-out: GM* MIC (geometric mean))?
A: 1000 ng/mL (≈ 1600 nM)

Q: What about the MIC (E. faecium) of the same compound?
A: > 7000 ng/mL

Q: And the converted to triclosan (TEM-1 β-lactamase)?
A: ~90%

Q: What about the “fold greater potency than vancomycin” value (Staphylococcus aureus; MRSA and vancomycin-resistant S. aureus) of the same compound?
A: at least 85 fold

Q: And the “Geometric mean of MIC” value (Staphylococcus aureus; S. aureus β-lactamase negative (2), listed as Comp. 9)?
A: 1410 ng/mL

Q: What about the MIC (Staphylococcus aureus; ATCC11632, ATCC 11632, methicillin-sensitive, β-lactamase Neg./Pos., read-out: MIC) of the same compound?
A: 0.015 ng/mL (≈ 0.024 nM)

Q: What about the MIC (Staphylococcus aureus; ATCC13301, ATCC 13301, methicillin-sensitive, β-lactamase Positive, read-out: MIC) of the same compound?
A: 0.015 ng/mL (≈ 0.024 nM)

Q: What about the MIC (Staphylococcus aureus; ATCC14154, ATCC 14154, methicillin-sensitive, β-lactamase Positive, read-out: MIC) of the same compound?
A: 0.015 ng/mL (≈ 0.024 nM)

Q: What about the MIC (Staphylococcus aureus; ATCC33591, ATCC 33591, methicillin-resistant, β-lactamase Positive, read-out: MIC) of the same compound?
A: 0.03 ng/mL (≈ 0.0479 nM)

Q: What about the MIC (Staphylococcus aureus; ATCC33592, ATCC 33592, methicillin-sensitive, β-lactamase Positive, read-out: MIC) of the same compound?
A: 0.015 ng/mL (≈ 0.024 nM)

Q: What about the MIC (Staphylococcus aureus; ATCC33593, ATCC 33593, methicillin-resistant, β-lactamase Positive, read-out: MIC) of the same compound?
A: 0.015 ng/mL (≈ 0.024 nM)

Q: And the MIC (Staphylococcus aureus; ATCC33594, ATCC 33594, methicillin-sensitive, β-lactamase Positive, read-out: MIC)?
A: 0.015 ng/mL (≈ 0.024 nM)

Q: And the MIC (Staphylococcus aureus; ATCC43300, ATCC 43300, methicillin-sensitive, β-lactamase Neg./Pos., read-out: MIC)?
A: 0.06 ng/mL (≈ 0.0959 nM)

Q: What about the MIC (Staphylococcus aureus; ATCC700260, ATCC 700260, methicillin-sensitive, β-lactamase Positive, read-out: MIC) of the same compound?
A: 0.015 ng/mL (≈ 0.024 nM)

Q: And the MIC (Staphylococcus aureus; ATCC700698, ATCC 700698, methicillin-resistant, β-lactamase Negative, read-out: MIC)?
A: 1000 ng/mL (≈ 1600 nM)

Q: And the MIC (Staphylococcus aureus; ATCC700699, ATCC 700699, methicillin-resistant, β-lactamase Negative, read-out: MIC)?
A: 2000 ng/mL (≈ 3200 nM)

Q: And the MIC (Staphylococcus aureus; ATCC700787, ATCC 700787, methicillin-resistant, β-lactamase Positive, read-out: MIC)?
A: 1000 ng/mL (≈ 1600 nM)

Q: And the MIC (Staphylococcus aureus; ATCC700788, ATCC 700788, methicillin-resistant, β-lactamase Positive, read-out: MIC)?
A: 250 ng/mL (≈ 399 nM)

Q: And the MIC (Staphylococcus aureus; ATCC700789, ATCC 700789, methicillin-resistant, β-lactamase Positive, read-out: MIC)?
A: 31 ng/mL (≈ 49.5 nM)

Q: And the MIC (Staphylococcus aureus; MRSA, MRSA tested (7), read-out: Geometric mean of MIC)?
A: 25 ng/mL (≈ 39.9 nM)

Q: What about the MIC (Staphylococcus aureus; MSSA, MSSA tested (7), read-out: Geometric mean of MIC) of the same compound?
A: 0.018 ng/mL (≈ 0.0288 nM)

Q: What about the MIC (Staphylococcus aureus; S. aureus (14), read-out: Geometric mean of MIC) of the same compound?
A: 1 ng/mL (≈ 1.6 nM)

Q: What about the MIC (Staphylococcus aureus; S. aureus β-lactamase negative (2), read-out: Geometric mean of MIC) of the same compound?
A: 1570 ng/mL (≈ 2510 nM)

Q: And the MIC (Staphylococcus aureus; S. aureus β-lactamase positive (12), read-out: Geometric mean of MIC)?
A: 0.19 ng/mL (≈ 0.304 nM)

Q: And the “stability in TEM-1 blank experiment” value [2]?
A: stable up to 5 hours

Q: And the MIC range (M. catarrhalis)?
A: 0.015 to 31 ng/mL

Q: And the MIC (M. catarrhalis; Moraxella catarrhalis, read-out: GM* MIC (geometric mean))?
A: 0.18 ng/mL (≈ 0.288 nM)

Q: And the MIC range (S. pneumoniae)?
A: 60 to 500 ng/mL

Q: And the MIC (S. pneumoniae; Streptococcus pneumoniae, read-out: GM* MIC (geometric mean))?
A: 122 ng/mL (≈ 195 nM)

Q: And the MIC (E. coli N [3]; read-out: MIC, Comp. (9) plus 4 μg/mL CLA, plus 4 μg/mL lithium clavulanate)?
A: 250 ng/mL

Q: And the MIC (E. coli N [3]; drug alone, read-out: MIC)?
A: 250 ng/mL (≈ 399 nM)

Q: What about the MIC (E. coli N [3]; plus 8 μg/mL sulbactam, read-out: MIC, Comp. (9) plus 8 μg/mL SBT) of the same compound?
A: 130 ng/mL

Q: And the MIC (E. coli/TEM-1)?
A: 2 ng/mL (≈ 3.2 nM)

Q: And the MIC (E. coli/TEM-1; read-out: MIC, Comp. (9) plus 8 μg/mL SBT)?
A: 16 ng/mL

Q: And the “fold more potent against E. coli/TEM-1 compared with E. coli N” value (E. coli/TEM-1; MIC ratio, Table 4)?
A: 128 fold
